Key:
AST = AST (Sus scrofa, UniProt P00503); settings: cited from earlier work
[1] = biological target: T1, ALT (alanine 2-oxoglutarate aminotransferase) (Homo sapiens, UniProt P24298)
T1 sequence (P24298 2-496 limits assumed): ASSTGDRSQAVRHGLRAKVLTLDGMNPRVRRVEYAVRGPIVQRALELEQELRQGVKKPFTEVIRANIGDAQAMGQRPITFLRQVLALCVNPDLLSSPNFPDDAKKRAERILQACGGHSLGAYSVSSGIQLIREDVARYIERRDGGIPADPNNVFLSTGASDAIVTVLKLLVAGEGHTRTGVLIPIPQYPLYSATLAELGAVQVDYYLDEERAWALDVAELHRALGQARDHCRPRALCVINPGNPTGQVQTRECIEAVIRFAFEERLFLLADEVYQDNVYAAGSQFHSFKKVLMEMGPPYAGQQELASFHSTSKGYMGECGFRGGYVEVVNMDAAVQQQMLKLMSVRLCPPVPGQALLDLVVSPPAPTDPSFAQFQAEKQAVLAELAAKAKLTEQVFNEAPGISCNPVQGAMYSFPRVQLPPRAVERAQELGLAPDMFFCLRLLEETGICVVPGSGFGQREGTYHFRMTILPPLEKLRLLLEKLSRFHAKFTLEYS
Text: For precise measurement of a bimolecular reaction of the type under discussion, the rate of a reaction, at a given "B" concentration should be independent of A's concentration (i.e. at or near apparent Vmax with respect to A). However, for situations where A's concentrations are very low (i.e. endogenous serum contributions of amino acids in a side reaction situation) it becomes important to be able to access the extent of measurement of the apparent maximum velocity of said "contaminant reaction." This being the case of a combination AST/ALT test where one is concerned with the measurement of AST in an ALT test or vice versa, a mathematical outline is in order. Both side reactions are quantitatively discussed below.
ALT, likewise having a "ping pong" mechanism of catalysis, can kinetically be described identically: [formula] […] (KB /B+1 is again <<KA /A.
Therefore the [formula] […] Therefore the % V1 apparent as measured [formula]

AST, sequence (P00503 2-413 limits assumed): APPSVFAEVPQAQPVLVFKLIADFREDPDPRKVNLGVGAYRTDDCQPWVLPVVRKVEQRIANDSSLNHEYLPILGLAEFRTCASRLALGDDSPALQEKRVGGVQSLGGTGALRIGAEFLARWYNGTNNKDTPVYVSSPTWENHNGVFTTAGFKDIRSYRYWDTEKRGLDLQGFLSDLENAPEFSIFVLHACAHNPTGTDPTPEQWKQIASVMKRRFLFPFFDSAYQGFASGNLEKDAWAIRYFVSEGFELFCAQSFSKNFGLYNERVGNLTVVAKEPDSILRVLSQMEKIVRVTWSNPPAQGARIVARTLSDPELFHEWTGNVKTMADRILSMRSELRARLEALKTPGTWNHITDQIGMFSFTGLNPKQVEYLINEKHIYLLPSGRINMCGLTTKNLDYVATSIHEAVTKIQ

SMILES: O=C(O)CCC(=O)C(=O)O [2-oxoglutarate, 2-Oxoglutarate]
- Km (AST; read-out: KB, B = 2-oxoglutarate): 100 µM

SMILES: C[C@H](N)C(=O)O [alanine, L-alanine]
- Theoretical turnover of ALT [1]: 1.32 % Vmax

SMILES: N[C@@H](CC(=O)O)C(=O)O [aspartate, L-aspartate]
- KA (AST; A = aspartate): 0.90 mM
